Results reported in the supplement of paper PMC10307832.

How the values were obtained:
Test in all cases: relative viability (nuclei count vs DMSO), 5 days (fraction); higher = more cells survive
[1] = compound: COc1cc2nccc(Oc3ccc(NC(=O)C4(C(=O)Nc5ccc(F)cc5)CC4)cc3)c2cc1OC [Cabozantinib] + C[C@]1(O)C[C@@H](c2nc(-c3ccc4ccc(-c5ccccc5)nc4c3)c3c(N)nccn32)C1 [Linsitinib] (partner 1 µM)
In short: (§1)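 Relative viability divides the nuclei count in treated wells by that in vehicle wells. Lung cancer cell lines were seeded in 1536-well plates, dosed by pin tool the next day, and fixed and stained after 5 days in one step with final 0.05% Triton X-100, 1% formaldehyde and 1 ug/ml Hoechst. Dosing was a single drug or a fixed anchor-drug dose plus five library-drug doses (not always all listed) in √10 steps, and values are medians of duplicate plates imaged at 4×.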

Zosuquidar + Luminespib = compound: O[C@@H](COc1cccc2ncccc12)CN1CCN([C@@H]2c3ccccc3[C@@H]3[C@H](c4ccccc42)C3(F)F)CC1 [Zosuquidar] + CCNC(=O)c1noc(-c2cc(C(C)C)c(O)cc2O)c1-c1ccc(CN2CCOCC2)cc1 [Luminespib] (partner 0.01 µM)
In short: as §1

Zosuquidar + OSI-027 = compound: O[C@@H](COc1cccc2ncccc12)CN1CCN([C@@H]2c3ccccc3[C@@H]3[C@H](c4ccccc42)C3(F)F)CC1 [Zosuquidar] + COc1cccc2cc(-c3nc([C@H]4CC[C@H](C(=O)O)CC4)n4ncnc(N)c34)[nH]c12 [OSI-027] (partner 0.5 µM)
In short: as §1

Zosuquidar + Pemetrexed = compound: O[C@@H](COc1cccc2ncccc12)CN1CCN([C@@H]2c3ccccc3[C@@H]3[C@H](c4ccccc42)C3(F)F)CC1 [Zosuquidar] + Nc1nc2[nH]cc(CCc3ccc(C(=O)N[C@@H](CCC(=O)O)C(=O)O)cc3)c2c(=O)[nH]1 [Pemetrexed] (partner 0.2 µM)
In short: as §1

Row | Cell Line | relative viability ([1]; first compound 0.02 µM) | relative viability ([1]; first compound 0.06325 µM) | relative viability ([1]; first compound 0.2 µM) | relative viability ([1]; first compound 0.6325 µM) | relative viability ([1]; first compound 2 µM) | relative viability (Zosuquidar + Luminespib; first compound 0.01 µM) | relative viability (Zosuquidar + Luminespib; first compound 0.03162 µM) | relative viability (Zosuquidar + Luminespib; first compound 0.1 µM) | relative viability (Zosuquidar + Luminespib; first compound 0.3162 µM) | relative viability (Zosuquidar + Luminespib; first compound 1 µM) | relative viability (Zosuquidar + OSI-027; first compound 0.01 µM) | relative viability (Zosuquidar + OSI-027; first compound 0.03162 µM) | relative viability (Zosuquidar + OSI-027; first compound 0.1 µM) | relative viability (Zosuquidar + OSI-027; first compound 0.3162 µM) | relative viability (Zosuquidar + OSI-027; first compound 1 µM) | relative viability (Zosuquidar + Pemetrexed; first compound 0.01 µM) | relative viability (Zosuquidar + Pemetrexed; first compound 0.03162 µM) | relative viability (Zosuquidar + Pemetrexed; first compound 0.3162 µM) | relative viability (Zosuquidar + Pemetrexed; first compound 1 µM) | relative viability (Zosuquidar + Pemetrexed; first compound 0.1 µM)
1 | NCI-H2085 | 0.93 | 0.868 | 0.918 | 0.847 | 0.875 | 0.425 | 0.526 | 0.531 | 0.44 | 0.471 | 0.707 | 0.779 | 0.468 | 0.84 | 0.746 | 0.953 | 0.697 | 0.956 | 0.904 | 
2 | NCI-H2087 | 1.03 | 1 | 1.06 | 1.02 | 1 | 0.155 |  | 0.184 | 0.195 | 0.16 | 0.607 |  | 0.432 | 0.694 | 0.587 | 0.597 | 0.667 | 0.643 | 0.637 | 0.62
3 | NCI-H2126 | 0.727 | 0.755 | 0.735 | 0.733 | 0.701 | 0.93 | 0.909 |  | 0.935 | 0.952 | 0.736 | 0.982 |  | 0.684 | 0.787 | 0.677 | 0.625 | 0.697 | 0.737 | 0.51
4 | NCI-H2228 | 0.939 | 1.32 | 0.611 | 0.716 | 0.542 | 0.124 | 0.163 | 0.185 | 0.171 | 0.206 | 0.614 | 0.635 | 0.604 | 0.745 | 0.428 | 0.359 | 0.302 | 0.324 | 0.361 | 0.315
5 | NCI-H2347 | 0.967 | 0.961 | 0.992 | 0.846 | 0.81 | 0.539 | 0.51 | 0.256 | 0.34 | 0.602 | 0.434 | 0.398 | 0.238 | 0.481 | 0.475 | 0.425 | 0.34 | 0.432 | 0.483 | 0.413
6 | NCI-H2405 |  | 1.14 | 0.905 | 0.908 | 0.852 | 0.671 | 0.687 | 0.589 | 0.654 | 0.824 | 0.67 | 0.656 | 0.503 | 0.713 | 0.631 | 1.08 | 0.914 | 1.2 | 0.23 | 0.956
7 | NCI-H3122 | 1.01 | 1.03 | 1.08 | 0.949 | 1 | 0.095 | 0.0891 | 0.0947 | 0.0965 | 0.0865 | 0.921 | 1.03 |  | 1.36 | 0.936 | 0.19 | 0.188 | 0.19 | 0.204 | 0.192
8 | PC-3 [JPC-3] | 0.971 | 0.993 |  | 1 | 0.902 | 0.697 | 0.647 | 0.647 | 0.658 | 0.75 | 0.738 | 0.787 | 0.562 | 0.789 | 0.796 | 1.34 | 1.04 | 1.1 | 0.366 | 0.873
9 | PC-14 | 1.09 | 1 |  | 0.961 | 0.927 | 0.129 |  | 0.135 | 0.135 | 0.124 | 0.903 | 0.714 | 0.826 | 1.02 | 0.78 | 0.119 | 0.147 | 0.128 | 0.142 | 0.134
10 | RERF-LC-KJ | 0.909 | 0.885 | 0.813 | 0.883 | 0.875 | 1.28 | 1.11 | 1.29 | 1.34 | 1.19 | 0.543 | 0.565 | 0.634 | 0.691 | 0.623 | 0.456 | 0.459 | 0.518 | 0.467 | 0.478
11 | SK-LU-1 |  | 1.34 | 1.08 | 1.34 | 0.823 | 0.228 | 0.201 | 0.177 | 0.204 | 0.219 | 0.369 | 0.35 | 0.401 | 0.432 | 0.33 | 0.975 | 0.795 | 1.03 | 0.962 | 1.06
12 | SK-MES-1 | 1.12 | 1.1 | 0.988 | 1.12 | 1.06 | 0.72 | 0.732 | 0.732 | 0.881 | 0.938 | 0.639 | 0.665 | 0.549 | 0.638 | 0.652 | 0.957 | 0.952 | 1.07 | 1.04 | 0.85
13 | SW 1573 | 0.702 | 0.799 | 0.842 | 0.604 | 0.63 | 0.281 | 0.287 | 0.287 | 0.275 | 0.355 | 0.624 | 0.609 | 0.81 | 1 | 0.689 | 0.781 | 0.751 | 0.941 | 0.786 | 0.952
